Data on 15 compounds can be found in patent US20240238423A9, “TETRAHYDROISOQUINOLINE HETEROBIFUNCTIONAL BCL-XL DEGRADERS” (Treeline Biosciences, Inc., priority 2022, published 2024).

Read-outs that look alike come from different tables or passages of the source.

This experiment deals with T1, Human BCL-XL protein (N-terminal HiBiT tagged BCL-XL in HT1080 cells) (Homo sapiens, UniProt Q07817).
T1 construct: expressed in transfected cells; host or cells: HT-1080 (ATCC CCL-121), stably transduced with lentivirus pLV-UBC-N-HiBiT-BCL-XL-PGK-puro and selected with puromycin
Description: HiBiT based degradation assay. The class given is cell-based. The note with it: HT1080 cells expressing HiBiT-BCL-XL; for Ymin (24 h) / Ymin (6 h): BCL-XL degradation normalized with DMSO control; for DC50: BCL-XL degradation. The method in brief: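 This HiBiT degradation assay measured loss of BCL-XL in HT1080 cells that stably express an N-terminal HiBiT-BCL-XL fusion delivered by lentivirus. Cells were added to compound-spotted 384-well plates, and luminescence was read on a PHERAstar FSX reader. Signal was expressed relative to DMSO controls, curves were fitted by four-parameter logistic regression, and for hook-shaped curves the Ymin point served as the bottom plateau when calculating EC50.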
On the technique in general: HiBiT is a short tag that completes a luciferase, so light tracks the accessible tagged protein.

T1 sequence (Q07817 whole entry): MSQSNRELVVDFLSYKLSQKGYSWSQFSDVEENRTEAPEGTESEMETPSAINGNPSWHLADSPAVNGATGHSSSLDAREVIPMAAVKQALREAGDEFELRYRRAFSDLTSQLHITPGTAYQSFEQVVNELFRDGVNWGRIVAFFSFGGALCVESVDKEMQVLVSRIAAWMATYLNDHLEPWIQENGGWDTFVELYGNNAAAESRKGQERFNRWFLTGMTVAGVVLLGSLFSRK

Turning to `Cc1c(OCCC[C@@H]2CCCN(CC(=O)Nc3ccc4c(C5CCC(=O)NC5=O)nn(C)c4c3)C2)cccc1-c1ccc(N2CCc3cccc(C(=O)Nc4nc5ccccc5s4)c3C2)nc1C(=O)O` (stereo partly drawn) [Compound 207a, 6-(8-(benzo[d]thiazol-2-ylcarbamoyl)-3,4-dihydroisoquinolin-2(1H)-yl)-3-(3-(3-((3S)-1-(2-((3-(2,6-dioxopiperidin-3-yl)-1-methyl-1H-indazol-6-yl)amino)-2-oxoethyl)piperidin-3-yl)propoxy)-2-methylphenyl) picolinic acid], the “Ymin (24 h)” value (24 h) is “A (Ymin < 50%)”. Further, the DC50 (24 h, read-out: EC50 (24 h)) is less than 100 nM.

As to `Cc1c(OCCCC2CCN(CC3CN(c4ccc5c(C6CCC(=O)NC6=O)nn(C)c5c4)C3)CC2)cccc1-c1ccc(N2CCc3cccc(C(=O)Nc4nc5ccccc5s4)c3C2)nc1C(=O)O` (centres unmarked) [Compound 312, 6-(8-(benzo[d]thiazol-2-ylcarbamoyl)-3,4-dihydroisoquinolin-2(1H)-yl)-3-(3-(3-(1-((1-(3-(2,6-dioxopiperidin-3-yl)-1-methyl-1H-indazol-6-yl)azetidin-3-yl)methyl)piperidin-4-yl)propoxy)-2-methylphenyl)picolinic acid], under “24 h”, the “Ymin (24 h)” value was “A (Ymin < 50%)”. For the setting “24 h, read-out: EC50 (24 h)”, the DC50 is less than 100 nM.

Turning to `Cc1cc(OCC[C@@H](C)C2CCN(CC(=O)Nc3ccc4c(C5CCC(=O)NC5=O)nn(C)c4c3)CC2)ccc1-c1ccc(N2CCc3cccc(C(=O)Nc4nc5ccccc5s4)c3C2)nc1C(=O)O` (single isomer, unassigned) [Compound 266a], for the setting “24 h”, the “Ymin (24 h)” value was “A (Ymin < 50%)”. Moreover, for the setting “24 h, read-out: EC50 (24 h)”, the DC50 is less than 100 nM.

As to `Cc1c(OCCN2CCN(CC(=O)N3CCN(c4ccc5c(C6CCC(=O)NC6=O)nn(C)c5c4)CC3)CC2)cccc1-c1ccc(N2CCc3cccc(C(=O)Nc4nc5ccccc5s4)c3C2)nc1C(=O)O` (centres unmarked) [Compound 141, 6-(8-(benzo[d]thiazol-2-ylcarbamoyl)-3,4-dihydroisoquinolin-2(1H)-yl)-3-(3-(2-(4-(2-(4-(3-(2,6-dioxopiperidin-3-yl)-1-methyl-1H-indazol-6-yl)piperazin-1-yl)-2-oxoethyl)piperazin-1-yl)ethoxy)-2-methylphenyl)picolinic acid], the “Ymin (6 h)” value (6 h) is “B (50% ≤ Ymin < 70%)”. Besides, for the setting “24 h”, the “Ymin (24 h)” value is “A (Ymin < 50%)”. Moreover, the DC50 is less than 100 nM (6 h, read-out: EC50 (6 h)) and less than 100 nM (24 h, read-out: EC50 (24 h)).

Regarding `Cc1c(O[C@H]2CCC3(CCN(CC(=O)Nc4ccc5c(C6CCC(=O)NC6=O)nn(C)c5c4)CC3)C2)cccc1-c1ccc(N2CCc3cccc(C(=O)Nc4nc5ccccc5s4)c3C2)nc1C(=O)O` (single isomer, unassigned) [Compound 268a], the “Ymin (24 h)” value (24 h) is “A (Ymin < 50%)”. Further, the DC50 (24 h, read-out: EC50 (24 h)) is less than 100 nM.

For the compound `Cc1c(O[C@H]2CC[C@H](CCCN3CCC(c4ccc5c(C6CCC(=O)NC6=O)nn(C)c5c4)CC3)CC2)cccc1-c1ccc(N2CCc3cccc(C(=O)Nc4nc5ccccc5s4)c3C2)nc1C(=O)O` (some centres unmarked) [Compound 269a, 6-(8-(benzo[d]thiazol-2-ylcarbamoyl)-3,4-dihydroisoquinolin-2(1H)-yl)-3-(3-(((1s,4r)-4-(3-(4-(3-(2,6-dioxopiperidin-3-yl)-1-methyl-1H-indazol-6-yl)piperidin-1-yl)propyl)cyclohexyl)oxy)-2-methylphenyl)picolinic acid], the “Ymin (24 h)” value (24 h) is reported as “A (Ymin < 50%)”. Moreover, the DC50 (24 h, read-out: EC50 (24 h)) was less than 100 nM.

As for `Cc1c(OCCC2CC3(C2)CN(CC(=O)Nc2ccc4c(C5CCC(=O)NC5=O)nn(C)c4c2)C3)cccc1-c1ccc(N2CCc3cccc(C(=O)Nc4nc5ccccc5s4)c3C2)nc1C(=O)O` (centres unmarked) [Compound 277, 6-(8-(benzo[d]thiazol-2-ylcarbamoyl)-3,4-dihydroisoquinolin-2(1H)-yl)-3-(3-(2-(2-(2-((3-(2,6-dioxopiperidin-3-yl)-1-methyl-1H-indazol-6-yl)amino)-2-oxoethyl)-2-azaspiro[3.3]heptan-6-yl)ethoxy)-2-methylphenyl)picolinic acid], where the note is “24 h”, the “Ymin (24 h)” value is “A (Ymin < 50%)”. Also, under “24 h, read-out: EC50 (24 h)”, the DC50 was less than 100 nM.

For `Cc1c(OCCCN2CCN(CC(=O)Nc3ccc4c(C5CCC(=O)NC5=O)nn(C)c4c3)CC2)cccc1-c1ccc(N2CCc3cccc(C(=O)Nc4nc5ccccc5s4)c3C2)nc1C(=O)O` (centres unmarked) [Compound 104, 6-[8-(1,3-benzothiazol-2-ylcarbamoyl)-3,4-dihydro-1H-isoquinolin-2-yl]-3-[3-[3-[4-[2-[[3-(2,6-dioxo-3-piperidyl)-1-methyl-indazol-6-yl]amino]-2-oxo-ethyl]piperazin-1-yl]propoxy]-2-methyl-phenyl]pyridine-2-carboxylic acid], where the note is “6 h”, the “Ymin (6 h)” value is “B (50% ≤ Ymin < 70%)”. Further, the “Ymin (24 h)” value (24 h) is reported as “A (Ymin < 50%)”. The DC50 runs as follows: (6 h, read-out: EC50 (6 h)) less than 100 nM; (24 h, read-out: EC50 (24 h)) less than 100 nM.

Regarding `Cc1c(O[C@H]2CC[C@H](CCCCN3CCN(c4ccc5c(C6CCC(=O)NC6=O)nn(C)c5c4)[C@@H](C)C3)CC2)cccc1-c1ccc(N2CCc3cccc(C(=O)Nc4nc5ccccc5s4)c3C2)nc1C(=O)O` (stereo partly drawn) [Compound 300b, 6-(8-(benzo[d]thiazol-2-ylcarbamoyl)-3,4-dihydroisoquinolin-2(1H)-yl)-3-(3-(((1r,4r)-4-(4-((3S)-4-(3-(2,6-dioxopiperidin-3-yl)-1-methyl-1H-indazol-6-yl)-3-methylpiperazin-1-yl)butyl)cyclohexyl)oxy)-2-methylphenyl)picolinic acid], the “Ymin (24 h)” value (24 h) is on record as “A (Ymin < 50%)”. Also, the DC50 (24 h, read-out: EC50 (24 h)) was less than 100 nM.

Regarding `Cc1c(OCCCC2(C)CCN(CC(=O)Nc3ccc4c(C5CCC(=O)NC5=O)nn(C)c4c3)CC2)cccc1-c1ccc(N2CCc3cccc(C(=O)Nc4nc5ccccc5s4)c3C2)nc1C(=O)O` (centres unmarked) [Compound 267, 6-[8-(1,3-benzothiazol-2-ylcarbamoyl)-3,4-dihydro-1H-isoquinolin-2-yl]-3-[3-[3-[1-[2-[[3-(2,6-dioxo-3-piperidyl)-1-methyl-indazol-6-yl]amino]-2-oxo-ethyl]-4-methyl-4-piperidyl]propoxy]-2-methyl-phenyl]pyridine-2-carboxylic acid], where the note is “24 h”, the “Ymin (24 h)” value is “A (Ymin < 50%)”. Where the note is “24 h, read-out: EC50 (24 h)”, the DC50 is less than 100 nM.

For `Cc1c(O[C@H]2CC[C@H](C[C@@H](C)CN3CCN(c4cccc5c(C6CCC(=O)NC6=O)nn(C)c45)CC3)CC2)cccc1-c1ccc(N2CCc3cccc(C(=O)Nc4nc5ccccc5s4)c3C2)nc1C(=O)O` (single isomer, unassigned) [Compound 284b, 6-(8-(benzo[d]thiazol-2-ylcarbamoyl)-3,4-dihydroisoquinolin-2(1H)-yl)-3-(3-(((1R,4r)-4-((2R*)-3-(4-(3-(2,6-dioxopiperidin-3-yl)-1-methyl-1H-indazol-7-yl)piperazin-1-yl)-2-methylpropyl)cyclohexyl)oxy)-2-methylphenyl)picolinic acid], for the setting “24 h”, the “Ymin (24 h)” value is recorded as “A (Ymin < 50%)”. Moreover, the DC50 (24 h, read-out: EC50 (24 h)) was less than 100 nM.

As to `Cc1c(OCCCC2CCN([C@H](C)C(=O)Nc3ccc4c(C5CCC(=O)NC5=O)nn(C)c4c3)CC2)cccc1-c1ccc(N2CCc3cccc(C(=O)Nc4nc5ccccc5s4)c3C2)nc1C(=O)O` (stereo partly drawn) [Compound 164b, 6-(8-(benzo[d]thiazol-2-ylcarbamoyl)-3,4-dihydroisoquinolin-2(1H)-yl)-3-(3-(3-(1-((2R)-1-((3-(2,6-dioxopiperidin-3-yl)-1-methyl-1H-indazol-6-yl)amino)-1-oxopropan-2-yl)piperidin-4-yl)propoxy)-2-methylphenyl)picolinic acid], the “Ymin (24 h)” value (24 h) was “A (Ymin < 50%)”. In addition, the DC50 (24 h, read-out: EC50 (24 h)) is less than 100 nM.

Consider `Cc1cc(OCCCN2C[C@@H](C)N(CC(=O)N3CCN(c4ccc5c(C6CCC(=O)NC6=O)nn(C)c5c4)CC3)[C@@H](C)C2)ccc1-c1ccc(N2CCc3cccc(C(=O)Nc4nc5ccccc5s4)c3C2)nc1C(=O)O` (stereo partly drawn) [Compound 154a, 6-(8-(Benzo[d]thiazol-2-ylcarbamoyl)-3,4-dihydroisoquinolin-2(1H)-yl)-3-(4-(3-((3R,5S)-4-(2-(4-(3-(2,6-dioxopiperidin-3-yl)-1-methyl-1H-indazol-6-yl)piperazin-1-yl)-2-oxoethyl)-3,5-dimethylpiperazin-1-yl)propoxy)-2-methylphenyl)picolinic acid], for which, for the setting “6 h”, the “Ymin (6 h)” value is listed as “A (Ymin < 50%)”. Further, the “Ymin (24 h)” value (24 h) is “A (Ymin < 50%)”. Also, the DC50 is less than 100 nM (6 h, read-out: EC50 (6 h)) and less than 100 nM (24 h, read-out: EC50 (24 h)).

As to `Cc1c(O[C@H]2CC[C@H](CC(F)(F)C(=O)N3CCN(c4cccc5c(C6CCC(=O)NC6=O)nn(C)c45)CC3)CC2)cccc1-c1ccc(N2CCc3cccc(C(=O)Nc4nc5ccccc5s4)c3C2)nc1C(=O)O` (some centres unmarked) [Compound 171a, 6-(8-(benzo[d]thiazol-2-ylcarbamoyl)-3,4-dihydroisoquinolin-2(1H)-yl)-3-(3-(((1r,4r)-4-(3-(4-(3-(2,6-dioxopiperidin-3-yl)-1-methyl-1H-indazol-7-yl)piperazin-1-yl)-2,2-difluoro-3-oxopropyl)cyclohexyl)oxy)-2-methylphenyl)picolinic acid], the “Ymin (24 h)” value (24 h) is listed as “B (50% ≤ Ymin < 70%)”. The DC50 (24 h, read-out: EC50 (24 h)) is 100 to 1000 nM.

`Cc1c(OCCCN2CCN(CC(=O)N3CCN(c4ccc5c(C6CCC(=O)NC6=O)nn(C)c5c4)CC3)CC2)cccc1-c1ccc(N2CCc3cccc(C(=O)Nc4nc5ccccc5s4)c3C2)nc1C(=O)O` (centres unmarked) [Compound 140, 6-(8-(Benzo[d]thiazol-2-ylcarbamoyl)-3,4-dihydroisoquinolin-2(1H)-yl)-3-(3-(3-(4-(2-(4-(3-(2,6-dioxopiperidin-3-yl)-1-methyl-1H-indazol-6-yl)piperazin-1-yl)-2-oxoethyl)piperazin-1-yl)propoxy)-2-methylphenyl)picolinic acid]: the “Ymin (6 h)” value (6 h) is “A (Ymin < 50%)”. The “Ymin (24 h)” value (24 h) is listed as “A (Ymin < 50%)”. For the same compound, the DC50 by setting is: (6 h, read-out: EC50 (6 h)) less than 100 nM; (24 h, read-out: EC50 (24 h)) less than 100 nM.
